Laboratory results published in ChEMBL document CHEMBL4043278, “Discovery of benzo[g]indoles as a novel class of non-covalent Keap1-Nrf2 protein-protein interaction inhibitor” (Bioorg Med Chem Lett, 2017).
The source made the active and inactive calls. The calls are words filed in the database; no cut-off is given here.

Experiments:
HepG2 = test: Cytotoxicity against human HepG2 cells assessed as reduction in cell viability at 50 uM after 24 hrs by WST8 assay; format: cell-based; conditions: hepg2, 24 h
[1] = Metabolic stability in human liver microsomes assessed as parent compound remaining at 1 uM preincubated for 3 mins followed by NADP+ addition measured after 30 mins by LC-MS assay; format: ADME, microsome; conditions: read-out: Stability
[2] = target: T1, Kelch-like ECH-associated protein 1/Nuclear factor erythroid 2-related factor 2 (Mus musculus) (UniProt Q60795+Q9Z2X8); test: Inhibition of Keap1-Nrf2 protein-protein interaction in MEF assessed as increase in Nrf2 activation mediated NQO1 mRNA level at 100 uM after 4 hrs by qRT-PCR method
[3] = target: T1, Kelch-like ECH-associated protein 1/Nuclear factor erythroid 2-related factor 2 (Mus musculus); test: Inhibition of Keap1-Nrf2 protein-protein interaction in MEF assessed as increase in Nrf2 activation mediated NQO1 mRNA level at 10 uM after 4 hrs by qRT-PCR method

T1 sequence (Q60795 whole entry, looked up): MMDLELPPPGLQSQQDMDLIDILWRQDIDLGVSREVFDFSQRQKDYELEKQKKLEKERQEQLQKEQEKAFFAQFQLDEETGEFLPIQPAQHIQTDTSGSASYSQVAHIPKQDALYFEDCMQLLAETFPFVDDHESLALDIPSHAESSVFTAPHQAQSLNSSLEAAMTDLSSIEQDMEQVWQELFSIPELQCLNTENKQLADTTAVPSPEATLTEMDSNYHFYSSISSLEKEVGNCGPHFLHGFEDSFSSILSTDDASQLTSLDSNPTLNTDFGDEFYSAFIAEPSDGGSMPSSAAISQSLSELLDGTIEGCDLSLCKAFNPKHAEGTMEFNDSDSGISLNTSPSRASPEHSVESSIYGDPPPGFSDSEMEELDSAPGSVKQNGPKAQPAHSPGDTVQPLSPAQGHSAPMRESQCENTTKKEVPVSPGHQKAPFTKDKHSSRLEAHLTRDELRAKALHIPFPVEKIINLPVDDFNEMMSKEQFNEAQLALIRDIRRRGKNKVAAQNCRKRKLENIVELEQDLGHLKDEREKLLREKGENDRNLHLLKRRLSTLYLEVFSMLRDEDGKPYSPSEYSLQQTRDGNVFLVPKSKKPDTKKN
T1 sequence (Q9Z2X8 whole entry, looked up): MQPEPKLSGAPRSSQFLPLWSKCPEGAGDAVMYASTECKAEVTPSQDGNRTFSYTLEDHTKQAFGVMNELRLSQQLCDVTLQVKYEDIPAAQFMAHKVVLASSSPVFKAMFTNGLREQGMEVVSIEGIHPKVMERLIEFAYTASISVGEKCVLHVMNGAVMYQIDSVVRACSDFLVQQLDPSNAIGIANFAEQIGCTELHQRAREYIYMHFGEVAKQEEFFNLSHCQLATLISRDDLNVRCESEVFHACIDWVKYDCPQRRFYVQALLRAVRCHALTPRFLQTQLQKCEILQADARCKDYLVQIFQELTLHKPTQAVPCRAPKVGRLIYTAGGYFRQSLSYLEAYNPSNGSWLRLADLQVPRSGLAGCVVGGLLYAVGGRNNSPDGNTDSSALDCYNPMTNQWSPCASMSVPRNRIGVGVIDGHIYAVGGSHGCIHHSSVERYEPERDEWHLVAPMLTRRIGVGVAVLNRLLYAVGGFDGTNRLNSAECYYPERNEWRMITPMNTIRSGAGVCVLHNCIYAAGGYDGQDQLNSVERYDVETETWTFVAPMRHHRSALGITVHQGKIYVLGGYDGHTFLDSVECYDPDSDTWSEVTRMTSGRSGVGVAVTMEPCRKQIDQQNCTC

Row | SMILES | Activity (HepG2) | remaining at 0.5 h, 1 µM [1] | inhibition [2] | inhibition [3]
1 | COc1cccc2c1C(=O)c1c(O)c3c(c(O)c1C2=O)C[C@@](O)(C(=O)CO)C[C@@H]3O[C@H]1C[C@H](N)[C@H](O)[C@H](C)O1 [DOXORUBICIN] | Toxic | – | – | –
2 | COc1ccc(S(=O)(=O)Nc2ccc(NS(=O)(=O)c3ccc(OC)cc3)c3ccccc23)cc1 | – | 9.3% | – | –
3 | COc1ccc(S(=O)(=O)Nc2cc3c(C(=O)NNc4ccc([N+](=O)[O-])cc4)c(C)n(S(=O)(=O)c4ccc(OC)cc4)c3c3ccccc23)cc1 | Toxic | 86.5% | – | –
4 | CCOc1ccc(S(=O)(=O)Nc2cc3c(C(=O)NO)c(C)n(S(=O)(=O)c4ccc(OCC)cc4)c3c3ccccc23)cc1 | Non-Toxic | 81% | Active | –
5 | COc1ccc(S(=O)(=O)Nc2cc3c(C(=O)NNc4ccccc4)c(C)n(S(=O)(=O)c4ccc(OC)cc4)c3c3ccccc23)cc1 | Non-Toxic | 85.4% | – | –
6 | CC(C)(C)c1cc(O)ccc1O | – | – | – | Active
7 | COc1ccc(S(=O)(=O)N(CC(=O)O)c2ccc(N(CC(=O)O)S(=O)(=O)c3ccc(OC)cc3)c3ccccc23)cc1 | Non-Toxic | 58.6% | – | –
8 | CNNC(=O)c1c(C)n(S(=O)(=O)c2ccc(OC)cc2)c2c1cc(NS(=O)(=O)c1ccc(OC)cc1)c1ccccc12 | Non-Toxic | 90.8% | – | –
9 | COc1ccc(NNC(=O)c2c(C)n(S(=O)(=O)c3ccc(OC)cc3)c3c2cc(NS(=O)(=O)c2ccc(OC)cc2)c2ccccc23)cc1 | Non-Toxic | 94.8% | – | –
10 | CCOc1ccc(S(=O)(=O)Nc2cc3c(C(=O)NN)c(C)n(S(=O)(=O)c4ccc(OCC)cc4)c3c3ccccc23)cc1 | Non-Toxic | 46.6% | – | –
